The source of these data is US20240109910A1, “HEXAHYDRO-5,8-EPOXYCYCLOHEPTA[c]PYRAZOLE DERIVATIVES USEFUL AS MODULATORS OF THE CB1 AND / OR CB2 RECEPTORS” (JANSSEN PHARMACEUTICA NV, priority 2019, published 2024).

Assay [1] concerns the target hCB2 receptor (Homo sapiens, UniProt P34972). Kind of assay: Agonism of CB2 by detection of cAMP using HTRF. It counts as cell-based. Particulars: CHO cells stably expressing CB2 receptor; for EC50: cAMP HTRF, forskolin-stimulated, average if tested more than once, read-out: hCB2 CHO EC50; for Emax: normalized to DMSO and maximal activation (5 nM CP55940). The method, then: (§1) Method for Assaying Agonism of CB1 or CB2 by Detection of cAMP Using Homogeneous Time-Resolved Fluorescence (HTRF®)
(§2) CHOP-K1 cells stably expressing the CB1 receptor (PerkinElmer, ES-110-C) or the CB2 receptor (PerkinElmer, ES-111-CF) were seeded into 384 well white TC-treated plates (Greiner 781080) at 7000 cells per well in Ham's media (Gibco #31765-035) supplemented with 10% FBS (Gibco #16000-044) and 500 μg/mL Geneticin (Gibco #10131-027) and cultured overnight. The next day, plates were washed one time in assay buffer (HBSS with Ca^2+ and Mg^2+ (Corning #21-023-CV)+20 mM HEPES (Corning #25-060-Cl) and 0.01% BSA (Sigma A2153)). In a separate compound plate (Greiner 781201-906), 50 nL of test compound or DMSO was transferred using the Echo 550 (Labcyte), then 40 μL/well of assay buffer with 0.5 mM IBMX, 2 μM Forskolin (Sigma F3917), and 0.01% BSA was added. For the CB1 assay, assay buffer was dumped from the cell plate and fresh assay buffer containing 0.5 mM IBMX (Sigma I5679) was added at 30 μL/well, and the plate was incubated for 1 hr at 37° C., 5% CO2. Following the IBMX pre-treatment step, buffer was dumped from the cell plate, and 20 μL/well of the assay buffer with test compound was transferred into the cell plate with a subsequent incubation of 20 min at room temperature. Reagents for cAMP detection (cisbio 62AM4PEJ) were prepared and subsequently transferred to the cell plate at 20 μL/well. Following a 1 hr incubation at room temperature, the plate was read on the Pherastar FX (BMG, excitation 320 nm, detection at 620 nm (donor) and 665 nm (acceptor)). The ratio of signal at 665 nm/620 nm was determined for each well in the plate. For each assay day, a cAMP standard curve was run in parallel to assess the range of response and determine the concentration of cAMP in each well. Control wells (n=16 of each) with no activation of CB1 receptor (DMSO) and maximal activation (5 nM CP55940, Sigma) were used to normalize the data and to determine signal-to-background ratio and Z′. For the CB2 assay, conditions were as described above for the CB1 assay, except that the IBMX preincubation step was not used and that the 20 min compound incubation step occurred in the incubator at 37° C., 5% CO2.
(§3) EC50 values were calculated from dose response curves by nonlinear regression analysis using PRISM software.
(§4) Representative compounds of the present invention were tested according to the procedures described in Biological Example 1 above, with results as listed in Table 3, below. If a compound was tested more than once (due to multiple samples or batches), then the value listed in Table 3 below represents the average of the measured values.
In general terms: In TR-FRET formats the signal depends on donor and acceptor labels being close together.

The target in assay [2] is hCB1 receptor (Homo sapiens, UniProt P21554). Kind of assay: Agonism of CB1 by detection of cAMP using HTRF. It counts as cell-based. Particulars: CHO cells stably expressing CB1 receptor; for EC50: cAMP HTRF, forskolin-stimulated, average if tested more than once, read-out: hCB1 CHO EC50; for Emax: normalized to DMSO and maximal activation (5 nM CP55940). As for the experimental part: as §1, §2, §3, §4
Sequence of hCB1 receptor (P21554 whole entry): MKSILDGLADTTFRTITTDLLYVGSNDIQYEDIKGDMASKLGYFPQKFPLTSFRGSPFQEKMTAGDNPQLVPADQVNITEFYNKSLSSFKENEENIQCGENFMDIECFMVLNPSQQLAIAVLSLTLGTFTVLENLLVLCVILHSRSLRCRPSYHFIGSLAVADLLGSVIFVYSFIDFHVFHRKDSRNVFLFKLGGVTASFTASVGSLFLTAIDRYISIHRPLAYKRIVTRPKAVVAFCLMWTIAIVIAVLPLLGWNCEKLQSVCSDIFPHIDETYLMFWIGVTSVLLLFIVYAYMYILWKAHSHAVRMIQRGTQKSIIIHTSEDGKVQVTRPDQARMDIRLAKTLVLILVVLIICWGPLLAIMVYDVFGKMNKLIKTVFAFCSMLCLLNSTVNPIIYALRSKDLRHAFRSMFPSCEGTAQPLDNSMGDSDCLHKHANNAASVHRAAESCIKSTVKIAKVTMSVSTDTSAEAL

Sequence of hCB2 receptor (P34972 whole entry): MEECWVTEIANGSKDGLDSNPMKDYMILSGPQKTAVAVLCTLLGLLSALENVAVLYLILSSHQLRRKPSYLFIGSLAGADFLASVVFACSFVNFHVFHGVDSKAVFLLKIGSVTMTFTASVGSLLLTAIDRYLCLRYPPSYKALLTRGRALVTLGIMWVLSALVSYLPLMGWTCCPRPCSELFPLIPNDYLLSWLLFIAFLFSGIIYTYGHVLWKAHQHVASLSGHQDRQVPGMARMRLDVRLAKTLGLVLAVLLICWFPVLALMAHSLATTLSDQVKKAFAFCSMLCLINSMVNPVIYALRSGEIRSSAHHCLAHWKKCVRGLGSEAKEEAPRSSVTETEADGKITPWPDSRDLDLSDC

As usually defined, the EC50 is the concentration giving half of the maximal effect. In general, Emax refers to the size of the effect at its maximum, as opposed to the concentration needed. Take `CC(C)(C)NC(=O)c1nn(-c2ccc(F)cc2F)c2c1CC1CCC2O1` (stereo not shown) [Compound 1, N-(tert-butyl)-1-(2,4-difluorophenyl)-1,4,5,6,7,8-hexahydro-5,8-epoxycyclohepta[c]pyrazole-3-carboxamide]: in assay [1], the EC50 is 1.2 nM and the Emax came out at 95.6%. In addition, in assay [2], the EC50 is 108 nM and the Emax worked out at 99%.
Regarding `CC(C)(C)NC(=O)c1c2c(nn1-c1ccc(F)cc1F)C1CCC(C2)O1` (stereo not shown) [Compound 2, N-(tert-butyl)-2-(2,4-difluorophenyl)-2,4,5,6,7,8-hexahydro-5,8-epoxycyclohepta[c]pyrazole-3-carboxamide], in assay [1], the EC50 is 2980 nM and the Emax is 72.8%.
For `CC(C)(C)NC(=O)c1nn(-c2cnccn2)c2c1CC1CCC2O1` (stereo not shown) [Compound 3, N-(tert-butyl)-1-(pyrazin-2-yl)-1,4,5,6,7,8-hexahydro-5,8-epoxycyclohepta[c]pyrazole-3-carboxamide], the half-maximal effective concentration (EC50) in assay [1] was 3.8 nM; in assay [2], 2080 nM. For the same molecule, the Emax in assay [1] turned out to be 99.7%; in assay [2], 94.8%.
Take `CC(C)(C)NC(=O)c1c2c(nn1-c1cnccn1)C1CCC(C2)O1` (stereo not shown) [Compound 4, N-(tert-butyl)-2-(pyrazin-2-yl)-2,4,5,6,7,8-hexahydro-5,8-epoxycyclohepta[c]pyrazole-3-carboxamide]: in assay [1], the EC50 stood at 4070 nM and the Emax is 75.8%.
For `CC(C)(C)[C@@H](CO)NC(=O)c1nn(-c2cnccn2)c2c1C[C@@H]1CC[C@H]2O1` [Compound 7, (5S,8R)-N-((S)-1-hydroxy-3,3-dimethylbutan-2-yl)-1-(pyrazin-2-yl)-1,4,5,6,7,8-hexahydro-5,8-epoxycyclohepta[c]pyrazole-3-carboxamide], in assay [1], the EC50 turned out to be 0.56 nM and the maximal effect (Emax) was found to be 100%.
For `O=C(NC1(C(F)(F)F)CC1)c1nn(-c2cnccn2)c2c1CC1CCC2O1` (stereo not shown) [Compound 9, 1-(pyrazin-2-yl)-N-(1-(trifluoromethyl)cyclopropyl)-1,4,5,6,7,8-hexahydro-5,8-epoxycyclohepta[c]pyrazole-3-carboxamide], in that order: 0.24 nM and 100%.
For `CC(C)(CO)NC(=O)c1nn(-c2cnccn2)c2c1CC1CCC2O1` (stereo not shown) [Compound 11, N-(1-hydroxy-2-methylpropan-2-yl)-1-(pyrazin-2-yl)-1,4,5,6,7,8-hexahydro-5,8-epoxycyclohepta[c]pyrazole-3-carboxamide], in that order: 7.1 nM and 99.2%.
Regarding `CC(C)(C)[C@@H](CO)NC(=O)c1nn(-c2c[n+]([O-])ccn2)c2c1C[C@@H]1CC[C@H]2O1` [Compound 15, 3-((5S,8R)-3-(((S)-1-hydroxy-3,3-dimethylbutan-2-yl)carbamoyl)-5,6,7,8-tetrahydro-5,8-epoxycyclohepta[c]pyrazol-1(4H)-yl)pyrazine 1-oxide], in assay [1], the EC50 came to 0.34 nM and the Emax turned out to be 101%.
For the molecule `O=C(NC1(C(F)(F)F)CC1)c1nn(-c2c[n+]([O-])ccn2)c2c1CC1CCC2O1` (stereo not shown) [Compound 17, 3-(3-((1-(trifluoromethyl)cyclopropyl)carbamoyl)-5,6,7,8-tetrahydro-5,8-epoxycyclohepta[c]pyrazol-1(4H)-yl)pyrazine 1-oxide], in assay [1], the EC50 turned out to be 0.12 nM and the Emax came out at 100%.
For `CC(C)(CO)NC(=O)c1nn(-c2c[n+]([O-])ccn2)c2c1CC1CCC2O1` (stereo not shown) [Compound 19, 3-(3-((1-hydroxy-2-methylpropan-2-yl)carbamoyl)-5,6,7,8-tetrahydro-5,8-epoxycyclohepta[c]pyrazol-1(4H)-yl)pyrazine 1-oxide], in that order: 1 nM and 100%.
For `CC(C)(C)c1nc(-c2nn(-c3c[n+]([O-])ccn3)c3c2CC2CCC3O2)no1` (stereo not shown) [Compound 23, 3-(3-(5-(tert-butyl)-1,2,4-oxadiazol-3-yl)-5,6,7,8-tetrahydro-5,8-epoxycyclohepta[c]pyrazol-1(4H)-yl)pyrazine 1-oxide], in that order: 0.1 nM and 100%.
`CC(C)(C)c1nnc(-c2nn(-c3c[n+]([O-])ccn3)c3c2CC2CCC3O2)[s+]1[O-]` (stereo not shown) [Compound 28, 3-(3-(5-(tert-butyl)-1-oxido-1,3,4-thiadiazol-2-yl)-5,6,7,8-tetrahydro-5,8-epoxycyclohepta[c]pyrazol-1(4H)-yl)pyrazine 1-oxide]: in assay [1], the EC50 came out at 0.74 nM and the Emax was found to be 99%.
With `CC(C)(C)NC(=O)c1c2c(nn1-c1c[n+]([O-])ccn1)C1CCC(C2)O1` (stereo not shown) [Compound 30, 3-(3-(tert-butylcarbamoyl)-5,6,7,8-tetrahydro-5,8-epoxycyclohepta[c]pyrazol-2(4H)-yl)pyrazine 1-oxide], in assay [1], the concentration for a half-maximal effect (EC50) was 7970 nM and the Emax is 66.3%.
Take `CC(C)(C)c1nc(-c2nn(-c3cnccn3)c3c2CC2CCC3O2)no1` (stereo not shown) [Compound 32, 3-(5-(tert-butyl)-1,2,4-oxadiazol-3-yl)-1-(pyrazin-2-yl)-1,4,5,6,7,8-hexahydro-5,8-epoxycyclohepta[c]pyrazole]: in assay [1], the EC50 was determined as 0.33 nM and the Emax was 100%.
For `CC(C)(C)c1cnc(-c2nn(-c3cnccn3)c3c2CC2CCC3O2)s1` (stereo not shown) [Compound 34, 3-(5-(tert-butyl)thiazol-2-yl)-1-(pyrazin-2-yl)-1,4,5,6,7,8-hexahydro-5,8-epoxycyclohepta[c]pyrazole], in that order: 0.24 nM and 99.7%.
`CCC(C)(C)c1noc(-c2nn(-c3cnccn3)c3c2CC2CCC3O2)n1` (stereo not shown) [Compound 36, 3-(3-(tert-pentyl)-1,2,4-oxadiazol-5-yl)-1-(pyrazin-2-yl)-1,4,5,6,7,8-hexahydro-5,8-epoxycyclohepta[c]pyrazole]: in assay [1], the EC50 was 0.04 nM and the maximal response (Emax) worked out at 99.8%.
Take `CC(C)(C)c1nnc(-c2nn(-c3cnccn3)c3c2CC2CCC3O2)o1` (stereo not shown) [Compound 39, 3-(5-(tert-butyl)-1,3,4-oxadiazol-2-yl)-1-(pyrazin-2-yl)-1,4,5,6,7,8-hexahydro-5,8-epoxycyclohepta[c]pyrazole]: in assay [1], the EC50 was 0.26 nM and the Emax was 100%.
For `CC(C)(C)c1cnc(-c2nn(-c3cnccn3)c3c2CC2CCC3O2)o1` (stereo not shown) [Compound 40, 3-(5-(tert-butyl)oxazol-2-yl)-1-(pyrazin-2-yl)-1,4,5,6,7,8-hexahydro-5,8-epoxycyclohepta[c]pyrazole], in that order: 0.13 nM and 99.7%.
On to `CC(C)(C)c1csc(-c2nn(-c3c[n+]([O-])ccn3)c3c2CC2CCC3O2)n1` (stereo not shown) [Compound 44, 3-(3-(4-(tert-butyl)thiazol-2-yl)-5,6,7,8-tetrahydro-5,8-epoxycyclohepta[c]pyrazol-1(4H)-yl)pyrazine 1-oxide], for which, in assay [1], the EC50 came to 46.3 nM and the Emax is 84.6%.
Regarding `CC(C)(C)NC(=O)c1nn(-c2cnccn2)c2c1C1CCC(C2)O1` (stereo not shown) [Compound 45], in assay [1], the EC50 amounted to 22.9 nM and the Emax was found to be 98.1%.
For `CC(C)(C)NC(=O)c1c2c(nn1-c1cnccn1)CC1CCC2O1` (stereo not shown) [Compound 46], in that order: 1650 nM and 85.8%.
For `CC(C)(C)NC(=O)c1nn(-c2ccc(F)cc2F)c2c1C1CCC(C2)O1` (stereo not shown) [Compound 47], in that order: 559 nM and 82.5%.
For the molecule `CC(C)(C)NC(=O)c1nn(-c2c[n+]([O-])ccn2)c2c1C1CCC(C2)O1` (stereo not shown) [Compound 48], in assay [1], the EC50 was 1.98 nM and the Emax was determined as 99.9%.
With `CC(C)(C)NC(=O)c1c2c(nn1-c1c[n+]([O-])ccn1)CC1CCC2O1` (stereo not shown) [Compound 49], in assay [1], the EC50 worked out at 2670 nM and the Emax was determined as 80.3%.
